Test: xn = mol fraction of the nth substance listed
Settings: 100 kPa, Liquid; for viscosity: Concentric cylinders viscometry; for mass density: Vibrating tube method

CCCC[n+]1ccccc1.F[B-](F)(F)F [1-butylpyridinium tetrafluoroborate] + CCCCn1cc[n+](C)c1.F[B-](F)(F)F
Settings	mass density [kg/m3]	viscosity [mPa·s]
293.15 K, x2 = 0	1216.6	228.9
293.15 K, x2 = 0.1007	1215.4	–
293.15 K, x2 = 0.1009	–	219.4
293.15 K, x2 = 0.2004	1214.3	–
293.15 K, x2 = 0.2005	–	209.3
293.15 K, x2 = 0.3001	1213.1	–
293.15 K, x2 = 0.3003	–	199.5
293.15 K, x2 = 0.4001	–	190
293.15 K, x2 = 0.4004	1211.7	–
293.15 K, x2 = 0.4999	–	180.9
293.15 K, x2 = 0.5009	1210.6	–
293.15 K, x2 = 0.6004	1209.4	–
293.15 K, x2 = 0.6007	–	172.5
293.15 K, x2 = 0.7004	–	163.9
293.15 K, x2 = 0.7013	1208.1	–
293.15 K, x2 = 0.8001	–	156.9
293.15 K, x2 = 0.8007	1206.7	–
293.15 K, x2 = 0.8987	1205.5	–
293.15 K, x2 = 0.8998	–	148.7
298.15 K, x2 = 0	1213.1	166.9
298.15 K, x2 = 0.1007	1211.9	–
298.15 K, x2 = 0.1009	–	160.8
298.15 K, x2 = 0.2004	1210.8	–
298.15 K, x2 = 0.2005	–	153.7
298.15 K, x2 = 0.3001	1209.6	–
298.15 K, x2 = 0.3003	–	147.1
298.15 K, x2 = 0.4001	–	140.8
298.15 K, x2 = 0.4004	1208.2	–
298.15 K, x2 = 0.4999	–	134.6
298.15 K, x2 = 0.5009	1207.1	–
298.15 K, x2 = 0.6004	1205.8	–
298.15 K, x2 = 0.6007	–	128.8
298.15 K, x2 = 0.7004	–	123.1
298.15 K, x2 = 0.7013	1204.5	–
298.15 K, x2 = 0.8001	–	117.9
298.15 K, x2 = 0.8007	1203.1	–
298.15 K, x2 = 0.8987	1202	–
298.15 K, x2 = 0.8998	–	112.7
303.15 K, x2 = 0	1209.6	124.5
303.15 K, x2 = 0.1007	1208.4	–
303.15 K, x2 = 0.1009	–	120.4
303.15 K, x2 = 0.2004	1207.3	–
303.15 K, x2 = 0.2005	–	115.6
303.15 K, x2 = 0.3001	1206.1	–
303.15 K, x2 = 0.3003	–	111.1
303.15 K, x2 = 0.4001	–	106.9
303.15 K, x2 = 0.4004	1204.7	–
303.15 K, x2 = 0.4999	–	102.5
303.15 K, x2 = 0.5009	1203.6	–
303.15 K, x2 = 0.6004	1202.3	–
303.15 K, x2 = 0.6007	–	98.69
303.15 K, x2 = 0.7004	–	94.64
303.15 K, x2 = 0.7013	1201	–
303.15 K, x2 = 0.8001	–	90.99
303.15 K, x2 = 0.8007	1199.6	–
303.15 K, x2 = 0.8987	1198.4	–
303.15 K, x2 = 0.8998	–	87.26
308.15 K, x2 = 0	1206.2	94.97
308.15 K, x2 = 0.1007	1204.9	–
308.15 K, x2 = 0.1009	–	92.11
308.15 K, x2 = 0.2004	1203.8	–
308.15 K, x2 = 0.2005	–	88.99
308.15 K, x2 = 0.3001	1202.6	–
308.15 K, x2 = 0.3003	–	85.73
308.15 K, x2 = 0.4001	–	82.59
308.15 K, x2 = 0.4004	1201.2	–
308.15 K, x2 = 0.4999	–	79.65
308.15 K, x2 = 0.5009	1200.1	–
308.15 K, x2 = 0.6004	1198.8	–
308.15 K, x2 = 0.6007	–	76.79
308.15 K, x2 = 0.7004	–	73.92
308.15 K, x2 = 0.7013	1197.5	–
308.15 K, x2 = 0.8001	–	71.3
308.15 K, x2 = 0.8007	1196.1	–
308.15 K, x2 = 0.8987	1194.9	–
308.15 K, x2 = 0.8998	–	68.74
313.15 K, x2 = 0	1202.8	73.94
313.15 K, x2 = 0.1007	1201.5	–
313.15 K, x2 = 0.1009	–	71.92
313.15 K, x2 = 0.2004	1200.4	–
313.15 K, x2 = 0.2005	–	69.59
313.15 K, x2 = 0.3001	1199.2	–
313.15 K, x2 = 0.3003	–	67.3
313.15 K, x2 = 0.4001	–	65.09
313.15 K, x2 = 0.4004	1197.8	–
313.15 K, x2 = 0.4999	–	62.92
313.15 K, x2 = 0.5009	1196.6	–
313.15 K, x2 = 0.6004	1195.3	–
313.15 K, x2 = 0.6007	–	61
313.15 K, x2 = 0.7004	–	58.91
313.15 K, x2 = 0.7013	1193.9	–
313.15 K, x2 = 0.8001	–	56.91
313.15 K, x2 = 0.8007	1192.6	–
313.15 K, x2 = 0.8987	1191.4	–
313.15 K, x2 = 0.8998	–	54.99
318.15 K, x2 = 0	1199.4	58.64
318.15 K, x2 = 0.1007	1198.1	–
318.15 K, x2 = 0.1009	–	57.19
318.15 K, x2 = 0.2004	1197	–
318.15 K, x2 = 0.2005	–	55.49
318.15 K, x2 = 0.3001	1195.7	–
318.15 K, x2 = 0.3003	–	53.81
318.15 K, x2 = 0.4001	–	52.19
318.15 K, x2 = 0.4004	1194.4	–
318.15 K, x2 = 0.4999	–	50.59
318.15 K, x2 = 0.5009	1193.1	–
318.15 K, x2 = 0.6004	1191.8	–
318.15 K, x2 = 0.6007	–	49.12
318.15 K, x2 = 0.7004	–	47.51
318.15 K, x2 = 0.7013	1190.6	–
318.15 K, x2 = 0.8001	–	46.14
318.15 K, x2 = 0.8007	1189.1	–
318.15 K, x2 = 0.8987	1187.8	–
318.15 K, x2 = 0.8998	–	44.72
323.15 K, x2 = 0	1196	47.29
323.15 K, x2 = 0.1007	1194.7	–
323.15 K, x2 = 0.1009	–	46.21
323.15 K, x2 = 0.2004	1193.5	–
323.15 K, x2 = 0.2005	–	44.95
323.15 K, x2 = 0.3001	1192.3	–
323.15 K, x2 = 0.3003	–	43.7
323.15 K, x2 = 0.4001	–	42.46
323.15 K, x2 = 0.4004	1190.9	–
323.15 K, x2 = 0.4999	–	41.32
323.15 K, x2 = 0.5009	1189.6	–
323.15 K, x2 = 0.6004	1188.3	–
323.15 K, x2 = 0.6007	–	40.18
323.15 K, x2 = 0.7004	–	39.01
323.15 K, x2 = 0.7013	1187	–
323.15 K, x2 = 0.8001	–	37.96
323.15 K, x2 = 0.8007	1185.6	–
323.15 K, x2 = 0.8987	1184.3	–
323.15 K, x2 = 0.8998	–	36.87
328.15 K, x2 = 0	1192.6	38.71
328.15 K, x2 = 0.1007	1191.3	–
328.15 K, x2 = 0.1009	–	37.89
328.15 K, x2 = 0.2004	1190.1	–
328.15 K, x2 = 0.2005	–	36.94
328.15 K, x2 = 0.3001	1188.8	–
328.15 K, x2 = 0.3003	–	36
328.15 K, x2 = 0.4001	–	35.04
328.15 K, x2 = 0.4004	1187.5	–
328.15 K, x2 = 0.4999	–	34.16
328.15 K, x2 = 0.5009	1186.2	–
328.15 K, x2 = 0.6004	1184.9	–
328.15 K, x2 = 0.6007	–	33.29
328.15 K, x2 = 0.7004	–	32.42
328.15 K, x2 = 0.7013	1183.5	–
328.15 K, x2 = 0.8001	–	31.6
328.15 K, x2 = 0.8007	1182.1	–
328.15 K, x2 = 0.8987	1180.8	–
328.15 K, x2 = 0.8998	–	30.76
333.15 K, x2 = 0	1189.2	32.12
333.15 K, x2 = 0.1007	1188	–
333.15 K, x2 = 0.1009	–	31.48
333.15 K, x2 = 0.2004	1186.7	–
333.15 K, x2 = 0.2005	–	30.81
333.15 K, x2 = 0.3001	1185.4	–
333.15 K, x2 = 0.3003	–	30.05
333.15 K, x2 = 0.4001	–	29.3
333.15 K, x2 = 0.4004	1184	–
333.15 K, x2 = 0.4999	–	28.66
333.15 K, x2 = 0.5009	1182.7	–
333.15 K, x2 = 0.6004	1181.4	–
333.15 K, x2 = 0.6007	–	27.94
333.15 K, x2 = 0.7004	–	27.27
333.15 K, x2 = 0.7013	1180	–
333.15 K, x2 = 0.8001	–	26.68
333.15 K, x2 = 0.8007	1178.6	–
333.15 K, x2 = 0.8987	1177.3	–
333.15 K, x2 = 0.8998	–	26.05
338.15 K, x2 = 0	1185.8	26.98
338.15 K, x2 = 0.1007	1184.6	–
338.15 K, x2 = 0.1009	–	26.47
338.15 K, x2 = 0.2004	1183.3	–
338.15 K, x2 = 0.2005	–	25.93
338.15 K, x2 = 0.3001	1182	–
338.15 K, x2 = 0.3003	–	25.37
338.15 K, x2 = 0.4001	–	24.83
338.15 K, x2 = 0.4004	1180.6	–
338.15 K, x2 = 0.4999	–	24.25
338.15 K, x2 = 0.5009	1179.3	–
338.15 K, x2 = 0.6004	1178	–
338.15 K, x2 = 0.6007	–	23.7
338.15 K, x2 = 0.7004	–	23.18
338.15 K, x2 = 0.7013	1176.6	–
338.15 K, x2 = 0.8001	–	22.68
338.15 K, x2 = 0.8007	1175.2	–
338.15 K, x2 = 0.8987	1173.9	–
338.15 K, x2 = 0.8998	–	22.23
343.15 K, x2 = 0	1182.5	22.97
343.15 K, x2 = 0.1007	1181.2	–
343.15 K, x2 = 0.1009	–	22.54
343.15 K, x2 = 0.2004	1179.9	–
343.15 K, x2 = 0.2005	–	22.07
343.15 K, x2 = 0.3001	1178.6	–
343.15 K, x2 = 0.3003	–	21.64
343.15 K, x2 = 0.4001	–	21.16
343.15 K, x2 = 0.4004	1177.3	–
343.15 K, x2 = 0.4999	–	20.75
343.15 K, x2 = 0.5009	1175.9	–
343.15 K, x2 = 0.6004	1174.5	–
343.15 K, x2 = 0.6007	–	20.32
343.15 K, x2 = 0.7004	–	19.9
343.15 K, x2 = 0.7013	1173.2	–
343.15 K, x2 = 0.8001	–	19.49
343.15 K, x2 = 0.8007	1171.8	–
343.15 K, x2 = 0.8987	1170.4	–
343.15 K, x2 = 0.8998	–	19.09
